The NIST ThermoML archive (doi:10.1021/je5009125)

Experiment: xn = mol fraction of the nth substance listed
Settings: Liquid; for mass density: Vibrating tube method; for viscosity: Vibrating wire viscometry

O=C=O [carbon dioxide] + O
Settings	mass density [kg/m3]	viscosity [mPa·s]
274.72 K, 30290 kPa, x1 = 0.0271	1030.1	–
274.72 K, 50410 kPa, x1 = 0.0271	1038.8	–
274.72 K, 70530 kPa, x1 = 0.0271	1047.2	–
274.72 K, 100770 kPa, x1 = 0.0271	1059.2	–
274.73 K, 15010 kPa, x1 = 0.0086	1012	–
274.73 K, 30110 kPa, x1 = 0.0086	1019	–
274.73 K, 50240 kPa, x1 = 0.0086	1028.1	–
274.73 K, 70360 kPa, x1 = 0.0086	1036.8	–
274.73 K, 100670 kPa, x1 = 0.0086	1049.3	–
274.77 K, 15080 kPa, x1 = 0.0168	1017.3	–
274.77 K, 30190 kPa, x1 = 0.0168	1024.1	–
274.77 K, 50310 kPa, x1 = 0.0168	1033	–
274.77 K, 70430 kPa, x1 = 0.0168	1041.6	–
274.77 K, 100710 kPa, x1 = 0.0168	1053.9	–
294.27 K, 15100 kPa, x1 = 0.0168	–	1.049
294.27 K, 30200 kPa, x1 = 0.0168	–	1.044
294.27 K, 50200 kPa, x1 = 0.0168	–	1.044
294.27 K, 70200 kPa, x1 = 0.0168	–	1.041
294.27 K, 96300 kPa, x1 = 0.0168	–	1.046
294.3 K, 15100 kPa, x1 = 0.0086	–	1.013
294.3 K, 30200 kPa, x1 = 0.0086	–	1.014
294.3 K, 50300 kPa, x1 = 0.0086	–	1.012
294.3 K, 70300 kPa, x1 = 0.0086	–	1.008
294.3 K, 96400 kPa, x1 = 0.0086	–	1.008
294.31 K, 30300 kPa, x1 = 0.0271	–	1.096
294.31 K, 50300 kPa, x1 = 0.0271	–	1.095
294.31 K, 70400 kPa, x1 = 0.0271	–	1.097
294.31 K, 96500 kPa, x1 = 0.0271	–	1.1
296.17 K, 15100 kPa, x1 = 0.0086	1008.6	–
296.17 K, 30200 kPa, x1 = 0.0086	1015	–
296.17 K, 50260 kPa, x1 = 0.0086	1023.4	–
296.17 K, 70330 kPa, x1 = 0.0086	1031.4	–
296.17 K, 100650 kPa, x1 = 0.0086	1042.9	–
296.18 K, 30250 kPa, x1 = 0.0271	1025.3	–
296.18 K, 50360 kPa, x1 = 0.0271	1033.4	–
296.18 K, 70440 kPa, x1 = 0.0271	1041.2	–
296.18 K, 100760 kPa, x1 = 0.0271	1052.6	–
296.19 K, 15070 kPa, x1 = 0.0168	1013.3	–
296.19 K, 30170 kPa, x1 = 0.0168	1019.7	–
296.19 K, 50300 kPa, x1 = 0.0168	1027.9	–
296.19 K, 70410 kPa, x1 = 0.0168	1035.9	–
296.19 K, 100730 kPa, x1 = 0.0168	1047.3	–
322.91 K, 15000 kPa, x1 = 0.0168	–	0.568
322.91 K, 30100 kPa, x1 = 0.0168	–	0.573
322.91 K, 50200 kPa, x1 = 0.0168	–	0.578
322.91 K, 70200 kPa, x1 = 0.0168	–	0.584
322.91 K, 96200 kPa, x1 = 0.0168	–	0.592
322.93 K, 15000 kPa, x1 = 0.0086	–	0.56
322.93 K, 30100 kPa, x1 = 0.0086	–	0.564
322.93 K, 50200 kPa, x1 = 0.0086	–	0.568
322.93 K, 70200 kPa, x1 = 0.0086	–	0.573
322.93 K, 96300 kPa, x1 = 0.0086	–	0.582
323.12 K, 70400 kPa, x1 = 0.0271	–	0.606
323.12 K, 96500 kPa, x1 = 0.0271	–	0.615
323.43 K, 15060 kPa, x1 = 0.0168	1002.5	–
323.43 K, 30180 kPa, x1 = 0.0168	1008.8	–
323.43 K, 50300 kPa, x1 = 0.0168	1016.9	–
323.43 K, 70420 kPa, x1 = 0.0168	1024.6	–
323.43 K, 70460 kPa, x1 = 0.0271	1029.6	–
323.43 K, 100720 kPa, x1 = 0.0168	1035.7	–
323.43 K, 100780 kPa, x1 = 0.0271	1040.7	–
323.45 K, 15020 kPa, x1 = 0.0086	998.4	–
323.45 K, 30130 kPa, x1 = 0.0086	1004.7	–
323.45 K, 50250 kPa, x1 = 0.0086	1012.8	–
323.45 K, 70360 kPa, x1 = 0.0086	1020.6	–
323.45 K, 100720 kPa, x1 = 0.0086	1031.6	–
348.32 K, 15050 kPa, x1 = 0.0086	984.8	–
348.32 K, 30150 kPa, x1 = 0.0086	991.3	–
348.32 K, 50270 kPa, x1 = 0.0086	999.5	–
348.32 K, 70370 kPa, x1 = 0.0086	1007.3	–
348.32 K, 100710 kPa, x1 = 0.0086	1018.6	–
348.33 K, 70580 kPa, x1 = 0.0271	1015.3	–
348.33 K, 100780 kPa, x1 = 0.0271	1026.8	–
348.38 K, 30200 kPa, x1 = 0.0168	994.9	–
348.38 K, 50320 kPa, x1 = 0.0168	1003.2	–
348.38 K, 70450 kPa, x1 = 0.0168	1011.1	–
348.38 K, 100740 kPa, x1 = 0.0168	1022.4	–
373.03 K, 30100 kPa, x1 = 0.0168	–	0.2932
373.03 K, 50200 kPa, x1 = 0.0168	–	0.2989
373.03 K, 70200 kPa, x1 = 0.0168	–	0.304
373.03 K, 96200 kPa, x1 = 0.0168	–	0.3111
373.13 K, 15000 kPa, x1 = 0.0086	–	0.286
373.13 K, 30100 kPa, x1 = 0.0086	–	0.291
373.13 K, 50200 kPa, x1 = 0.0086	–	0.297
373.13 K, 70300 kPa, x1 = 0.0086	–	0.302
373.13 K, 96400 kPa, x1 = 0.0086	–	0.308
373.38 K, 70590 kPa, x1 = 0.0271	998.2	–
373.38 K, 100800 kPa, x1 = 0.0271	1010.3	–
373.42 K, 15090 kPa, x1 = 0.0086	967.8	–
373.42 K, 30180 kPa, x1 = 0.0086	974.6	–
373.42 K, 50280 kPa, x1 = 0.0086	983.2	–
373.42 K, 70390 kPa, x1 = 0.0086	991.5	–
373.42 K, 100710 kPa, x1 = 0.0086	1003.2	–
373.46 K, 30190 kPa, x1 = 0.0168	977.8	–
373.46 K, 50320 kPa, x1 = 0.0168	986.5	–
373.46 K, 70450 kPa, x1 = 0.0168	994.9	–
373.46 K, 100740 kPa, x1 = 0.0168	1006.7	–
374.09 K, 70300 kPa, x1 = 0.0271	–	0.309
374.09 K, 96400 kPa, x1 = 0.0271	–	0.318
397.88 K, 30100 kPa, x1 = 0.0168	–	0.233
397.88 K, 50200 kPa, x1 = 0.0168	–	0.238
397.88 K, 70200 kPa, x1 = 0.0168	–	0.244
397.88 K, 96300 kPa, x1 = 0.0168	–	0.25
397.98 K, 30100 kPa, x1 = 0.0086	–	0.231
397.98 K, 50200 kPa, x1 = 0.0086	–	0.236
397.98 K, 70300 kPa, x1 = 0.0086	–	0.242
397.98 K, 96400 kPa, x1 = 0.0086	–	0.248
398.48 K, 50470 kPa, x1 = 0.0271	970	–
398.48 K, 70600 kPa, x1 = 0.0271	979.3	–
398.48 K, 100800 kPa, x1 = 0.0271	992.1	–
398.55 K, 15060 kPa, x1 = 0.0086	948.3	–
398.55 K, 30170 kPa, x1 = 0.0086	955.6	–
398.55 K, 30190 kPa, x1 = 0.0168	958.2	–
398.55 K, 50290 kPa, x1 = 0.0086	964.9	–
398.55 K, 50330 kPa, x1 = 0.0168	967.8	–
398.55 K, 70390 kPa, x1 = 0.0086	973.7	–
398.55 K, 70460 kPa, x1 = 0.0168	976.7	–
398.55 K, 100710 kPa, x1 = 0.0086	986	–
398.55 K, 100730 kPa, x1 = 0.0168	989.4	–
398.98 K, 50200 kPa, x1 = 0.0271	–	0.241
398.98 K, 70200 kPa, x1 = 0.0271	–	0.245
398.98 K, 96300 kPa, x1 = 0.0271	–	0.254
422.91 K, 30000 kPa, x1 = 0.0168	–	0.192
422.91 K, 50100 kPa, x1 = 0.0168	–	0.196
422.91 K, 70200 kPa, x1 = 0.0168	–	0.202
422.91 K, 96200 kPa, x1 = 0.0168	–	0.208
423.82 K, 50200 kPa, x1 = 0.0271	–	0.198
423.82 K, 70300 kPa, x1 = 0.0271	–	0.204
423.82 K, 96500 kPa, x1 = 0.0271	–	0.21
423.84 K, 50460 kPa, x1 = 0.0271	948	–
423.84 K, 70580 kPa, x1 = 0.0271	958.1	–
423.84 K, 100810 kPa, x1 = 0.0271	972.1	–
423.92 K, 15070 kPa, x1 = 0.0086	925.9	–
423.92 K, 30180 kPa, x1 = 0.0086	934	–
423.92 K, 50300 kPa, x1 = 0.0086	944.2	–
423.92 K, 70420 kPa, x1 = 0.0086	953.8	–
423.92 K, 100710 kPa, x1 = 0.0086	967.1	–
423.93 K, 30200 kPa, x1 = 0.0168	935.7	–
423.93 K, 50340 kPa, x1 = 0.0168	946.2	–
423.93 K, 70460 kPa, x1 = 0.0168	956	–
423.93 K, 100730 kPa, x1 = 0.0168	969.7	–
424.03 K, 30100 kPa, x1 = 0.0086	–	0.19
424.03 K, 50200 kPa, x1 = 0.0086	–	0.194
424.03 K, 70200 kPa, x1 = 0.0086	–	0.199
424.03 K, 96400 kPa, x1 = 0.0086	–	0.205
448.29 K, 30000 kPa, x1 = 0.0168	–	0.163
448.29 K, 50100 kPa, x1 = 0.0168	–	0.168
448.29 K, 70100 kPa, x1 = 0.0168	–	0.173
448.29 K, 96200 kPa, x1 = 0.0168	–	0.179
448.71 K, 50200 kPa, x1 = 0.0271	–	0.169
448.71 K, 70200 kPa, x1 = 0.0271	–	0.173
448.71 K, 96400 kPa, x1 = 0.0271	–	0.179
448.93 K, 30000 kPa, x1 = 0.0086	–	0.162
448.93 K, 50100 kPa, x1 = 0.0086	–	0.167
448.93 K, 70200 kPa, x1 = 0.0086	–	0.172
448.93 K, 96300 kPa, x1 = 0.0086	–	0.178
449.17 K, 50450 kPa, x1 = 0.0271	923.6	–
449.17 K, 70570 kPa, x1 = 0.0271	934.9	–
449.17 K, 100800 kPa, x1 = 0.0271	950.3	–
449.2 K, 15080 kPa, x1 = 0.0086	900.7	–
449.2 K, 30190 kPa, x1 = 0.0086	909.9	–
449.2 K, 30210 kPa, x1 = 0.0168	910.8	–
449.2 K, 50310 kPa, x1 = 0.0086	921.3	–
449.2 K, 50360 kPa, x1 = 0.0168	922.6	–
449.2 K, 70420 kPa, x1 = 0.0086	931.8	–
449.2 K, 70470 kPa, x1 = 0.0168	933.5	–
449.2 K, 100710 kPa, x1 = 0.0086	946.4	–
449.2 K, 100740 kPa, x1 = 0.0168	948.4	–
